In the NIST ThermoML archive (doi:10.1016/j.tca.2004.08.001):

Legend:
[1] = xn = mol fraction of the nth substance listed; details: 303.15 K, 101.3 kPa, Liquid; for speed of sound: Linear variable-path acoustic interferometer
[2] = refractive index (Na D-line) (dimensionless); xn = mol fraction of the nth substance listed; details: 303.15 K, 101.3 kPa, Liquid, Standard Abbe refractometry
[3] = 101.33 kPa, Liquid; for speed of sound: Linear variable-path acoustic interferometer
[4] = refractive index (Na D-line) (dimensionless); details: 101.33 kPa, Liquid, Standard Abbe refractometry

COC(C)=O [methyl ethanoate] + C1CCOC1
Details | mass density, [1] [kg/m3] | refractive index, [2] | speed of sound, [1] [m/s] | viscosity, [1] [mPa·s]
x2 = 0.1028 | 915.9 | 1.3649 | 1151 | 0.3512
x2 = 0.3022 | 906.64 | 1.3748 | 1178 | 0.3672
x2 = 0.5035 | 897.56 | 1.3847 | 1204 | 0.3841
x2 = 0.693 | 889.35 | 1.3927 | 1226 | 0.4035
x2 = 0.8918 | 881.07 | 1.4008 | 1246 | 0.4251

ClC(Cl)(Cl)Cl [tetrachloromethane] + C1CCOC1
Details | mass density, [1] [kg/m3] | refractive index, [2] | speed of sound, [1] [m/s] | viscosity, [1] [mPa·s]
x2 = 0.1068 | 1513.72 | 1.4519 | 932 | 0.8152
x2 = 0.2017 | 1457.18 | 1.4486 | 955 | 0.788
x2 = 0.3004 | 1395.97 | 1.4451 | 982 | 0.758
x2 = 0.396 | 1334.07 | 1.4409 | 1008 | 0.721
x2 = 0.503 | 1261.58 | 1.4357 | 1042 | 0.6782
x2 = 0.6 | 1192.83 | 1.4304 | 1074 | 0.6359
x2 = 0.6923 | 1124.71 | 1.4247 | 1109 | 0.5916
x2 = 0.7949 | 1045.62 | 1.4182 | 1152 | 0.5453
x2 = 0.8889 | 969.98 | 1.4116 | 1196 | 0.4962

CCCCCCBr [1-bromohexane]
Details | mass density, [3] [kg/m3] | refractive index, [4] | speed of sound, [3] [m/s] | viscosity, [3] [mPa·s]
298.15 K | 1169.62 | 1.4464 | – | –
303.15 K | 1162.67 | 1.4441 | 1075 | 0.903

CCCCCCCl [1-chlorohexane] + C1CCOC1
Details | mass density, [1] [kg/m3] | refractive index, [2] | speed of sound, [1] [m/s] | viscosity, [1] [mPa·s]
x2 = 0.1039 | 869.11 | 1.4161 | 1195 | 0.6407
x2 = 0.305 | 870.03 | 1.4142 | 1216 | 0.6046
x2 = 0.5025 | 871.36 | 1.4122 | 1233 | 0.5698
x2 = 0.7336 | 873.79 | 1.4088 | 1247 | 0.5114
x2 = 0.9013 | 875.66 | 1.4053 | 1252 | 0.4711

CCCCOC(C)=O [butyl ethanoate]
303.15 K
Details | mass density [kg/m3] | refractive index | speed of sound [m/s] | viscosity [mPa·s]
[3] | 870.8 | – | 1172 | 0.6453
[4] | – | 1.3896 | – | –

CCOC(C)=O [ethyl acetate]
303.15 K
Details | mass density [kg/m3] | refractive index | speed of sound [m/s] | viscosity [mPa·s]
[3] | 888.55 | – | 1117 | 0.4043
[4] | – | 1.3664 | – | –

ClC(Cl)(Cl)Cl [tetrachloromethane]
303.15 K
Details | mass density [kg/m3] | refractive index | speed of sound [m/s] | viscosity [mPa·s]
[3] | 1574.82 | – | 905 | 0.8441
[4] | – | 1.4555 | – | –

CCCCCCBr [1-bromohexane] + C1CCOC1
Details | mass density, [1] [kg/m3] | refractive index, [2] | speed of sound, [1] [m/s] | viscosity, [1] [mPa·s]
x2 = 0.0976 | 1146.32 | 1.442 | 1087 | 0.8602
x2 = 0.3008 | 1107.3 | 1.4368 | 1119 | 0.7753
x2 = 0.4975 | 1061.2 | 1.4307 | 1154 | 0.6995
x2 = 0.696 | 1002.92 | 1.4223 | 1194 | 0.6258
x2 = 0.9 | 924.62 | 1.4105 | 1235 | 0.5054

COC(C)=O [methyl ethanoate]
303.15 K
Details | mass density [kg/m3] | refractive index | speed of sound [m/s] | viscosity [mPa·s]
[3] | 920.83 | – | 1136 | 0.343
[4] | – | 1.3567 | – | –

ClC(Cl)C(Cl)Cl [1,1,2,2-tetrachloroethane] + C1CCOC1
Details | mass density, [1] [kg/m3] | refractive index, [2] | speed of sound, [1] [m/s] | viscosity, [1] [mPa·s]
x2 = 0.1023 | 1523.21 | 1.483 | 1138 | 1.389
x2 = 0.2128 | 1460.02 | 1.476 | 1143 | 1.307
x2 = 0.3093 | 1401.59 | 1.4701 | 1149 | 1.227
x2 = 0.4056 | 1340.18 | 1.4639 | 1157 | 1.136
x2 = 0.5093 | 1270.31 | 1.4556 | 1168 | 1.029
x2 = 0.6032 | 1203.28 | 1.4472 | 1180 | 0.9116
x2 = 0.7046 | 1126.91 | 1.4368 | 1195 | 0.786
x2 = 0.8008 | 1050.12 | 1.4268 | 1212 | 0.6647
x2 = 0.8973 | 968.58 | 1.416 | 1231 | 0.5519

ClC(Cl)Cl [trichloromethane] + C1CCOC1
Details | mass density, [1] [kg/m3] | refractive index, [2] | speed of sound, [1] [m/s] | viscosity, [1] [mPa·s]
x2 = 0.1023 | 1410.89 | 1.438 | 986 | 0.5307
x2 = 0.2085 | 1349.01 | 1.4346 | 1006 | 0.5467
x2 = 0.3045 | 1292.84 | 1.4315 | 1024 | 0.5566
x2 = 0.4278 | 1220.11 | 1.4273 | 1051 | 0.559
x2 = 0.5003 | 1176.98 | 1.4251 | 1070 | 0.558
x2 = 0.6047 | 1114.67 | 1.421 | 1102 | 0.5445
x2 = 0.6976 | 1058.96 | 1.4168 | 1133 | 0.5245
x2 = 0.8077 | 992.59 | 1.4121 | 1174 | 0.4955
x2 = 0.8921 | 941.69 | 1.4079 | 1208 | 0.4676

C1CCOC1 [tetrahydrofuran] + CCOC(C)=O
Details | mass density, [1] [kg/m3] | refractive index, [2] | speed of sound, [1] [m/s] | viscosity, [1] [mPa·s]
x1 = 0.0995 | 887.39 | 1.3707 | 1129 | 0.4078
x1 = 0.2035 | 886.11 | 1.375 | 1141 | 0.4082
x1 = 0.3016 | 884.98 | 1.3785 | 1153 | 0.4085
x1 = 0.3923 | 883.95 | 1.3821 | 1165 | 0.4091
x1 = 0.4868 | 882.82 | 1.3858 | 1177 | 0.4111
x1 = 0.5955 | 881.45 | 1.3892 | 1192 | 0.4147
x1 = 0.6973 | 880.21 | 1.3921 | 1206 | 0.4184
x1 = 0.812 | 878.89 | 1.3964 | 1224 | 0.4236
x1 = 0.9 | 877.84 | 1.3995 | 1238 | 0.4287

C1CCOC1 [tetrahydrofuran]
303.15 K
Details | mass density [kg/m3] | refractive index | speed of sound [m/s] | viscosity [mPa·s]
[3] | 876.7 | – | 1255 | 0.4383
[4] | – | 1.4028 | – | –

CCCCCOC(C)=O [pentyl ethanoate]
303.15 K
Details | mass density [kg/m3] | refractive index | speed of sound [m/s] | viscosity [mPa·s]
[3] | 867.2 | – | 1197 | 0.7573
[4] | – | 1.3961 | – | –

ClC(Cl)C(Cl)Cl [1,1,2,2-tetrachloroethane]
303.15 K
Details | mass density [kg/m3] | refractive index | speed of sound [m/s] | viscosity [mPa·s]
[3] | 1578.6 | – | 1135 | 1.457
[4] | – | 1.4881 | – | –

CCCCCCCl [1-chlorohexane]
Details | mass density, [3] [kg/m3] | refractive index, [4] | speed of sound, [3] [m/s] | viscosity, [3] [mPa·s]
298.15 K | 873.47 | 1.4197 | – | –
303.15 K | 868.78 | 1.4168 | 1184 | 0.6544

CCCCOC(C)=O [butyl ethanoate] + C1CCOC1
Details | mass density, [1] [kg/m3] | refractive index, [2] | speed of sound, [1] [m/s] | viscosity, [1] [mPa·s]
x2 = 0.1033 | 871.17 | 1.3911 | 1177 | 0.6261
x2 = 0.1989 | 871.58 | 1.3924 | 1182 | 0.6085
x2 = 0.3041 | 872.04 | 1.3941 | 1188 | 0.5892
x2 = 0.3995 | 872.51 | 1.3954 | 1194 | 0.5762
x2 = 0.4967 | 873.01 | 1.397 | 1201 | 0.5573
x2 = 0.6013 | 873.59 | 1.3979 | 1210 | 0.5346
x2 = 0.6979 | 874.18 | 1.3991 | 1219 | 0.5107
x2 = 0.7978 | 874.96 | 1.4005 | 1229 | 0.4893
x2 = 0.8999 | 875.79 | 1.4018 | 1241 | 0.4644

CCCCCOC(C)=O [pentyl ethanoate] + C1CCOC1
Details | mass density, [1] [kg/m3] | refractive index, [2] | speed of sound, [1] [m/s] | viscosity, [1] [mPa·s]
x2 = 0.1067 | 867.69 | 1.3967 | 1198 | 0.7426
x2 = 0.298 | 868.75 | 1.3978 | 1203 | 0.7005
x2 = 0.4997 | 870.25 | 1.3992 | 1212 | 0.6373
x2 = 0.6997 | 872.25 | 1.4005 | 1224 | 0.5686
x2 = 0.9027 | 875 | 1.4021 | 1242 | 0.4829

ClC(Cl)Cl [trichloromethane]
303.15 K
Details | mass density [kg/m3] | refractive index | speed of sound [m/s] | viscosity [mPa·s]
[3] | 1470.59 | – | 967 | 0.51
[4] | – | 1.441 | – | –
